# Measured values taken from paper PMC7316160 (Drug testing and analysis, 2018).
# Where “and” joins values, the source holds several entries; their conditions need not be identical. Equal entries are not always repeated. Where two headings read alike, the source gives them in different places.
# Legend:
# [1] = LC-MS/MS quantification in blood/serum of human intoxication cases; format: in vivo
# [2] = molecular target: T1, norepinephrine transporter (NET) (Rattus norvegicus, UniProt Q63380); experiment: Release of [^3H]MPP+ via NET from rat brain synaptosomes; format: biochemical; details: for Release of [^3H]MPP+ via NET EC50: rat brain synaptosomes, mean ± SD, n=3
# [3] = molecular target: T1, norepinephrine transporter (NET); experiment: Inhibition of [^3H]norepinephrine uptake at NET in rat brain synaptosomes; format: biochemical; details: approximate value
# 5-HT transporter (SERT) = 5-HT transporter (SERT) (Rattus norvegicus, UniProt P31652); experiment: Release of [^3H]5-HT via SERT from rat brain synaptosomes; format: biochemical; details: for Emax: read-out: Release of [^3H]5-HT via SERT %Emax; for Release of [^3H]5-HT via SERT EC50: rat brain synaptosomes, mean ± SD, n=3
# [4] = molecular target: T2, dopamine transporter (DAT) (Rattus norvegicus, UniProt P23977); experiment: Release of [^3H]MPP+ via DAT from rat brain synaptosomes; format: biochemical; details: for Release of [^3H]MPP+ via DAT EC50: rat brain synaptosomes, mean ± SD, n=3
# [5] = molecular target: T2, dopamine transporter (DAT); experiment: Inhibition of [^3H]dopamine uptake at DAT in rat brain synaptosomes; format: biochemical; details: for DAT/SERT ratio (uptake inhibition): [DAT IC50]^−1/[SERT IC50]^−1, higher value indicates greater DAT selectivity
# [6] = format: in vivo, human; details: for Potassium: reference 3.3 - 5.1; for aspartame aminotransferase: reference 10 - 40; for alanine aminotransferase: reference 12 - 78; for BUN: reference 15 - 39; for Sodium: reference 136 - 145; for pH: reference 7.35 - 7.45; for HCO3: reference 22 - 26; for pCO2: reference 35 - 45; for Glucose: reference 70 - 100; for pO2: reference 80 - 100; for serum creatinine: reference Male 0.8 - 1.3; for Hb: reference Male 13.2 - 18.0; for Hematocrit: reference Male 39.0 - 51.0; for creatine kinase: reference Male 39 - 308; for base excess: reference −2 - +2
# [7] = Stability in whole blood on storage; format: physicochemical, human; details: for long-term stability, variation of initial concentration: 90 days; for Stability (% difference): whole blood, n=3
# [8] = Case 4, co-exposure alcohol, MDMA and N-ethylnorpentylone
# [9] = Inhibition of [^3H]dopamine Uptake at DAT IC50, rat brain synaptosomes (caudate), mean ± SD, n=3
# T2 sequence (P23977 whole entry): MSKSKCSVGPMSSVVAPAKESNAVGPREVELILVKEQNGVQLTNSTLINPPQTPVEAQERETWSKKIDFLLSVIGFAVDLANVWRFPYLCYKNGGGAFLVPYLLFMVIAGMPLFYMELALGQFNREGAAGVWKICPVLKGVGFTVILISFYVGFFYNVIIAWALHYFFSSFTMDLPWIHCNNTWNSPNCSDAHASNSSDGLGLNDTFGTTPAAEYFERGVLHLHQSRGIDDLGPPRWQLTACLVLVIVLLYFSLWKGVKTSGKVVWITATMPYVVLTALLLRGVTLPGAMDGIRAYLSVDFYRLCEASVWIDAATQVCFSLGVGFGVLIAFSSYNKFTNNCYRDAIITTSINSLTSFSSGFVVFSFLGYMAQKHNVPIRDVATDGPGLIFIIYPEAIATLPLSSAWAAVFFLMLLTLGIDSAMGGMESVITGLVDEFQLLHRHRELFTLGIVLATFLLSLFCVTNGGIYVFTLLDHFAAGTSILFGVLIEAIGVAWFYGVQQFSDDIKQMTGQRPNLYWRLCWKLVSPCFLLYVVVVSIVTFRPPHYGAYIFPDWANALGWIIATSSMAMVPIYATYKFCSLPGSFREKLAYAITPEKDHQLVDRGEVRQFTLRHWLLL
# Sequence of 5-HT transporter (SERT) (P31652 whole entry): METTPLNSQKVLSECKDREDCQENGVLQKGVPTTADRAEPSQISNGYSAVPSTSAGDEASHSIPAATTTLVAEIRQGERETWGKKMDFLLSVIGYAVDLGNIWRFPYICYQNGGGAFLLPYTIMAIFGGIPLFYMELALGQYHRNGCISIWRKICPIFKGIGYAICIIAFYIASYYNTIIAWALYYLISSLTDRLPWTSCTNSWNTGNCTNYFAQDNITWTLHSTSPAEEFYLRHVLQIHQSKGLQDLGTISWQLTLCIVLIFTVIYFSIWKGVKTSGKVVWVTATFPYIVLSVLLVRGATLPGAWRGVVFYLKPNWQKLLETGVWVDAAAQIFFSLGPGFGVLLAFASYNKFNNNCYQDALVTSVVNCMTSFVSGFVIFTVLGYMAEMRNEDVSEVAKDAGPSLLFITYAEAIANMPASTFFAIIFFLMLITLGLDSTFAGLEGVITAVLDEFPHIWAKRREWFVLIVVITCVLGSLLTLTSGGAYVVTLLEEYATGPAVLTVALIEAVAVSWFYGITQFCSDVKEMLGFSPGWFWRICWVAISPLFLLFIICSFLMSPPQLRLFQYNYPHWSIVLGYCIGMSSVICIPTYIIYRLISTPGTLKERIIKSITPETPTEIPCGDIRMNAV
# T1 sequence (Q63380 1-617): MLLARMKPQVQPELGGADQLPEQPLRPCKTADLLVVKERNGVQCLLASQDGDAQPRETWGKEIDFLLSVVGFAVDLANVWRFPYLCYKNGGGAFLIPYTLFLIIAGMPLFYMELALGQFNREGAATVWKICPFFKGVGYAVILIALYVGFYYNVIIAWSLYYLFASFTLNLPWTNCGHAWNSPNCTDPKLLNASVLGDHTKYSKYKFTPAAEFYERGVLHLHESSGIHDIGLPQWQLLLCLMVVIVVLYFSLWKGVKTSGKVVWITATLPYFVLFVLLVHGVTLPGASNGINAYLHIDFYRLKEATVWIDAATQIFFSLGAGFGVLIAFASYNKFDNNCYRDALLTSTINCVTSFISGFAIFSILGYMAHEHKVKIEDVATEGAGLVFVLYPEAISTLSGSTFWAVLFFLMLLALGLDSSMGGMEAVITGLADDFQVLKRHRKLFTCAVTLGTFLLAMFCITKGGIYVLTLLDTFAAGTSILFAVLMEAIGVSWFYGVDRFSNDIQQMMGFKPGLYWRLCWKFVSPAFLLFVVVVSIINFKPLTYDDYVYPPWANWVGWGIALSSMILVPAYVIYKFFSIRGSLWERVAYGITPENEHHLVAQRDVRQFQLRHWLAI
smiles,measurement,setting,value
"CNC(C)Cc1ccc2c(c1)OCO2 (stereo not drawn) [MDMA, 3,4-methylenedioxymethamphetamine]",serum concentration,[1]; [8],54 ng/mL
"CNC(C)C(=O)c1ccc2c(c1)OCO2 (stereo not drawn) [Methylone, 3,4-methylenedioxy-N-methylcathinone]",EC50,[2],81 ± 8 nM
same,Emax,[2]; read-out: Release of [^3H]MPP+ via NET %Emax,94%
same,IC50,[3],~1000 nM
same,EC50,5-HT transporter (SERT),342 ± 20 nM
same,Emax,5-HT transporter (SERT),99%
same,EC50,[4],178 ± 17 nM
same,DAT/SERT ratio (release),"[4]; [DAT EC50]^−1/[SERT EC50]^−1, higher value indicates greater DAT selectivity",1.9
same,Emax,[4]; read-out: Release of [^3H]MPP+ via DAT %Emax,96%
same,IC50,[5]; [9],1390 ± 81 nM
same,DAT/SERT ratio (uptake inhibition),[5],0.83 and 0.8
same,IC50,"[5]; uptake inhibition at DAT IC50, rat brain synaptosomes, approximate value",~1000 nM
"CCCC(NCC)C(=O)c1ccc2c(c1)OCO2 (stereo not drawn) [N-ethylnorpentylone, 1-(1,3-benzodioxol-5-yl)-2-(ethylamino)pentan-1-one]",post mortem whole blood concentration,"[1]; Case 1, fatal, only psychoactive analyte detected",170 ng/mL
same,serum concentration,"[1]; Case 2, recovered by 12 h",7 ng/mL
same,serum concentration,[1]; [8],19 ng/mL
same,serum concentration,"[1]; Case 5, coma, cerebrovascular hemorrhage",149 ng/mL
same,serum concentration,"[1]; Case 6, psychosis",61 ng/mL
same,Release of [^3H]MPP+ via NET EC50,[2],unable to evoke release
same,Release of [^3H]MPP+ via NET EC50,[2]; listed as N-EthylNorpentylone,inactive
same,Release of [^3H]MPP+ via NET EC50,[2]; listed as N-Ethylnorpentylone,no transporter releasing activity
same,symptoms of intoxicated subjects,[6]; 6 human cases,"palpitations, tachycardia, agitation, aggression, hallucinations, coma and, in one case, death"
same,heart rate (tachycardia),"[6]; Case 2, at ED",176 bpm
same,Potassium,[6]; Case 3,3.6 mEq/L
same,aspartame aminotransferase,[6]; Case 3,93 U/L
same,alanine aminotransferase,[6]; Case 3,35 U/L
same,BUN,[6]; Case 3,14 mg/dL
same,Sodium,[6]; Case 3,140 mEq/L
same,phosphatase alkaline,"[6]; Case 3, reference Adult 50 - 136",53 U/L
same,blood pressure,"[6]; Case 4, described as normal",123/89
same,Potassium,[6]; Case 4,3.4 mEq/L
same,creatine kinase MB isoenzyme,"[6]; Case 4, reference 7 - 25",21 U/L
same,pH,[6]; Case 4,7.46
same,aspartame aminotransferase,[6]; Case 4,40 U/L
same,alanine aminotransferase,[6]; Case 4,25 U/L
same,BUN,[6]; Case 4,14 mg/dL
same,HCO3,[6]; Case 4,20.5 mmol/L
same,pCO2,[6]; Case 4,29.4 mmHg
same,Glucose,[6]; Case 4,104 mg/dL
same,pO2,[6]; Case 4,72.5 mmHg
same,Sodium,[6]; Case 4,137 mEq/L
same,serum creatinine,[6]; Case 4,0.9 mg/dL
same,Hb,[6]; Case 4,15.5 g/dL
same,Hematocrit,[6]; Case 4,43.0%
same,creatine kinase,[6]; Case 4,605 U/L
same,base excess,[6]; Case 4,-1.6 mmol/L
same,Glasgow score (neurological depression),[6]; Case 5,5
same,Lactate,"[6]; Case 5, reference 0.5 - 1.6",11.0 mmol/L
same,Magnesium,"[6]; Case 5, reference 1.6 - 2.4",1.6 mg/dL
same,Potassium,[6]; Case 5,3.7 mEq/L
same,pH,[6]; Case 5,7.41
same,BUN,[6]; Case 5,28 mg/dL
same,HCO3,[6]; Case 5,19 mmol/L
same,pCO2,[6]; Case 5,31 mmHg
same,pO2,[6]; Case 5,86 mmHg
same,Sodium,[6]; Case 5,137 mEq/L
same,serum creatinine,[6]; Case 5,0.7 mg/dL
same,Hb,[6]; Case 5,13.0 g/dL
same,Hematocrit,[6]; Case 5,43.0%
same,creatine kinase,[6]; Case 5,"1,260 U/L"
same,base excess,[6]; Case 5,-3.8 mmol/L
same,Potassium,[6]; Case 6,3.8 mEq/L
same,aspartame aminotransferase,[6]; Case 6,24 U/L
same,alanine aminotransferase,[6]; Case 6,27 U/L
same,BUN,[6]; Case 6,31 mg/dL
same,Glucose,[6]; Case 6,101 mg/dL
same,Sodium,[6]; Case 6,137 mEq/L
same,serum creatinine,[6]; Case 6,0.7 mg/dL
same,Hb,[6]; Case 6,13.0 g/dL
same,Hematocrit,[6]; Case 6,39.9%
same,creatine kinase,[6]; Case 6,713 U/L
same,"long-term stability, variation of initial concentration","[7]; fortified whole blood, both QC concentrations, 4 °C",−3.5%
same,"long-term stability, variation of initial concentration","[7]; fortified whole blood, both QC concentrations, −20 °C",+6.5%
same,"long-term stability, variation of initial concentration","[7]; post mortem blood sample, 4 °C",−19.7%
same,"long-term stability, variation of initial concentration","[7]; post mortem blood sample, −20 °C",−5.5%
same,Stability (% difference),"[7]; High QC (400 ng/mL), 3 freeze-thaw cycles",−3.0%
same,Stability (% difference),"[7]; High QC (400 ng/mL), 4 °C, 24h",7.1%
same,Stability (% difference),"[7]; High QC (400 ng/mL), 4 °C, 72h",5.9%
same,Stability (% difference),"[7]; High QC (400 ng/mL), −20 °C, 24h",−3.3%
same,Stability (% difference),"[7]; High QC (400 ng/mL), −20 °C, 72h",−2.9%
same,Stability (% difference),"[7]; Low QC (15 ng/mL), 3 freeze-thaw cycles",−11.8%
same,Stability (% difference),"[7]; Low QC (15 ng/mL), 4 °C, 24h",−2.4%
same,Stability (% difference),"[7]; Low QC (15 ng/mL), 4 °C, 72h",−4.9%
same,Stability (% difference),"[7]; Low QC (15 ng/mL), −20 °C, 24h",−1.8%
same,Stability (% difference),"[7]; Low QC (15 ng/mL), −20 °C, 72h",−12.6%
same,Release of [^3H]5-HT via SERT EC50,5-HT transporter (SERT),unable to evoke release
same,Release of [^3H]5-HT via SERT EC50,5-HT transporter (SERT); listed as N-EthylNorpentylone,inactive
same,Release of [^3H]5-HT via SERT EC50,5-HT transporter (SERT); listed as N-Ethylnorpentylone,no transporter releasing activity
same,Release of [^3H]MPP+ via DAT EC50,[4],unable to evoke release
same,Release of [^3H]MPP+ via DAT EC50,[4]; listed as N-EthylNorpentylone,inactive
same,Release of [^3H]MPP+ via DAT EC50,[4]; listed as N-Ethylnorpentylone,no transporter releasing activity
same,IC50,[5]; [9],37 ± 2 nM
same,DAT/SERT ratio (uptake inhibition),[5],> 10
"CCCC(NC)C(=O)c1ccc2c(c1)OCO2 (stereo not drawn) [Pentylone, 1-(1,3-benzodioxol-5-yl)-2-(methylamino)pentan-1-one]",Release of [^3H]MPP+ via NET EC50,[2],Inactive
same,EC50,5-HT transporter (SERT),476 ± 98 nM
same,Emax,5-HT transporter (SERT),54%
same,Release of [^3H]MPP+ via DAT EC50,[4],inactive
same,IC50,[5]; [9],154 ± 11 nM
same,DAT/SERT ratio (uptake inhibition),[5],7.8
CCO [alcohol],serum concentration,[1]; Case 4,800000 ng/mL
